Laboratory results reported in paper PMC8399023 (Molecules, 2021).
In brackets after ≈: the same amount, converted by molar mass.

Conditions: 24 h, pH 7.4

Solubility: 277 µg/mL (≈ 867 µM)
Structure (SMILES): CC(=O)N1CCC(NC(=O)NC23CC4CC(CC(C4)C2)C3)CC1 [AR9281]
